US6706748B2 (priority 2000, dated 2004)

For `COc1ccc(C(=O)CC(=O)c2snc(Cl)c2Cl)cc1`, which melting point is on record?
Its melting point is 138 to 139 °C.

With `COc1ccc(S(=O)(=O)N(C(=O)c2snc(Cl)c2Cl)c2ccc(Cl)cc2)cc1` [Ia-68, N-(3,4-dichloro-5-isothiazolecarbonyl)-N-(4-chlorophenyl)-4-methoxybenzenesulfonamide] as the molecule, how does the melting point read?
The melting point was 154 to 158 °C.

Which melting point does the source give for `CCOCOc1ccc(C(=O)CC(=O)c2snc(Cl)c2Cl)cc1` [Ic-145, 1-(3,4-dichloro-5-isothiazolyl)-3-(4-ethoxymethoxyphenyl)-1,3-propanedione] here?
Its melting point is 174 °C.

With `O=C(CC(=O)c1snc(Cl)c1Cl)c1ccc(O)cc1` [Ic-148, 1-(3,4-dichloro-5-isothiazolyl)-3-(4-hydroxyphenyl)-1,3-propanedione] as the molecule, how does the melting point read?
Its melting point is 224 to 227 °C.

With `COC(=O)C(C#N)C(=O)c1snc(Cl)c1Cl` (centres unmarked) [Ie-1, methyl 2-cyano-3-(3,4-dichloro-5-isothiazolyl)-3-oxopropanoate] as the molecule, how does the melting point read?
The melting point was 119 to 122 °C.
